Test system: OST
Assay: 35S metabolic labeling of pSAP and SHBG in Hela cells
Type: cell-based
Experimental: FIGS. 2A-2I illustrate the finding that NGI-1 blocks OST function. FIG. 2A illustrates the western blots of glycosylated luciferase (Luc) after treatment with 1 μM tunicmaycin (Tn) and 10 μM NGI-1 in CHO-Lec15 and CHO-Lec35 cells with stable expression of ER-LucT. FIG. 2B is a […] illustrating FACE analysis of lipid linked oligosaccharides (LLOs). FIG. 2C is a series of western blots illustrating the effects of NGI-1 (5 μM) on free oligosaccharides (left panel) and N-linked glycans cleaved from peptides with Peptide-N-Glycosidase F (right panel). Carbohydrate size is indicated with glucose markers (G4-G7). FIG. 2D is a western blot illustrating cell free inhibition of the OST using a rabbit reticulocyte lysate translation system supplemented with canine pancreas rough microsomes (cRM). Saposin-DDK-His6 mRNA was translated for 60 min in the presence of ^35S methionine and the indicated concentration of NGI-1 or Tn. […] FIG. 2E comprises a series of western blots illustrating results from NGI-1 compared to siRNA knockdown of STT3A or STT3B. Glycoforms are represented by 0-5n and 0-2n respectively and average number of glycans per sample is reported for each condition. NC=non-coding siRNA, EH=endoglycosidase H treated. […] FIGS. 2G-2H: Dose response and quantitation of NGI-1 effect on pSAP (squares) and SHBG glycosylation (circles). […]

Cc1cnc(NC(=O)c2cc(S(=O)(=O)N(C)C)ccc2N2CCCC2)s1 [NGI-1, 5-(N,N-Dimethylsulfamoyl)-N-(5-methylthiazol-2-yl)-2-(pyrrolidin-1-yl)benzamide]
glycosylation of pSAP and SHBG sites (10 μM NGI-1, 24 h, compared to STT3A/STT3B knockdown): reduced glycosylation of all sites on pSAP and SHBG
reversibility of OST inhibition (NGI-1 24 h prior to, during 20 min labeling, or both): reversible OST inhibitor
